# Experimental data published in the NIST ThermoML archive (doi:10.1016/j.jct.2011.12.035).
# ± gives the expanded uncertainty stated by the source.
# Test: xn = mol fraction of the nth substance listed
# Settings: Gas, Buoyancy - hydrostatic balance with magnetic suspension - one sinker
compound,measurement,setting,value
N#N [nitrogen] + O=C=O,mass density,"324.98 K, 10004 kPa, x2 = 0.501",153.908 ± 0.37 kg/m3
same,mass density,"324.98 K, 11001 kPa, x2 = 0.501",171.162 ± 0.41 kg/m3
same,mass density,"324.98 K, 12005 kPa, x2 = 0.501",188.662 ± 0.46 kg/m3
same,mass density,"324.98 K, 13008 kPa, x2 = 0.501",206.25 ± 0.5 kg/m3
same,mass density,"324.98 K, 14011 kPa, x2 = 0.501",223.826 ± 0.54 kg/m3
same,mass density,"324.98 K, 14991 kPa, x2 = 0.501",240.922 ± 0.58 kg/m3
same,mass density,"324.98 K, 16018 kPa, x2 = 0.501",258.66 ± 0.63 kg/m3
same,mass density,"324.98 K, 17012 kPa, x2 = 0.501",275.602 ± 0.67 kg/m3
same,mass density,"324.98 K, 18018 kPa, x2 = 0.501",292.404 ± 0.71 kg/m3
same,mass density,"324.98 K, 19023 kPa, x2 = 0.501",308.813 ± 0.75 kg/m3
same,mass density,"324.98 K, 19436 kPa, x2 = 0.501",315.426 ± 0.76 kg/m3
same,mass density,"349.95 K, 1995.5 kPa, x2 = 0.2",21.523 ± 0.052 kg/m3
same,mass density,"349.95 K, 3995.9 kPa, x2 = 0.2",43.283 ± 0.1 kg/m3
same,mass density,"349.95 K, 5996.5 kPa, x2 = 0.2",65.117 ± 0.16 kg/m3
same,mass density,"349.95 K, 7996.2 kPa, x2 = 0.2",86.91 ± 0.21 kg/m3
same,mass density,"349.95 K, 9978.8 kPa, x2 = 0.2",108.381 ± 0.26 kg/m3
same,mass density,"349.95 K, 11996 kPa, x2 = 0.2",129.976 ± 0.32 kg/m3
same,mass density,"349.95 K, 13995 kPa, x2 = 0.2",151.019 ± 0.37 kg/m3
same,mass density,"349.95 K, 15999 kPa, x2 = 0.2",171.67 ± 0.42 kg/m3
same,mass density,"349.95 K, 17993 kPa, x2 = 0.2",191.695 ± 0.46 kg/m3
same,mass density,"349.95 K, 19820 kPa, x2 = 0.2",209.531 ± 0.51 kg/m3
same,mass density,"349.96 K, 983.48 kPa, x2 = 0.501",12.303 ± 0.035 kg/m3
same,mass density,"349.96 K, 1988.3 kPa, x2 = 0.501",25.152 ± 0.061 kg/m3
same,mass density,"349.96 K, 2996.4 kPa, x2 = 0.501",38.326 ± 0.094 kg/m3
same,mass density,"349.96 K, 3997 kPa, x2 = 0.501",51.667 ± 0.12 kg/m3
same,mass density,"349.96 K, 4995.9 kPa, x2 = 0.501",65.24 ± 0.16 kg/m3
same,mass density,"349.96 K, 5996.2 kPa, x2 = 0.501",79.074 ± 0.19 kg/m3
same,mass density,"349.96 K, 6995.9 kPa, x2 = 0.501",93.129 ± 0.23 kg/m3
same,mass density,"349.96 K, 7995.5 kPa, x2 = 0.501",107.379 ± 0.26 kg/m3
same,mass density,"349.96 K, 8996.2 kPa, x2 = 0.501",121.83 ± 0.29 kg/m3
same,mass density,"349.96 K, 9996.3 kPa, x2 = 0.501",136.421 ± 0.33 kg/m3
same,mass density,"349.96 K, 10998 kPa, x2 = 0.501",151.155 ± 0.37 kg/m3
same,mass density,"349.96 K, 11997 kPa, x2 = 0.501",165.911 ± 0.4 kg/m3
same,mass density,"349.96 K, 12998 kPa, x2 = 0.501",180.741 ± 0.44 kg/m3
same,mass density,"349.96 K, 14000 kPa, x2 = 0.501",195.573 ± 0.47 kg/m3
same,mass density,"349.96 K, 14998 kPa, x2 = 0.501",210.29 ± 0.51 kg/m3
same,mass density,"349.96 K, 15995 kPa, x2 = 0.501",224.908 ± 0.55 kg/m3
same,mass density,"349.96 K, 16996 kPa, x2 = 0.501",239.453 ± 0.58 kg/m3
same,mass density,"349.96 K, 17996 kPa, x2 = 0.501",253.79 ± 0.61 kg/m3
same,mass density,"349.96 K, 18997 kPa, x2 = 0.501",267.945 ± 0.65 kg/m3
same,mass density,"349.96 K, 19977 kPa, x2 = 0.501",281.556 ± 0.68 kg/m3
same,mass density,"374.94 K, 981.92 kPa, x2 = 0.2",9.845 ± 0.024 kg/m3
same,mass density,"374.94 K, 1992.4 kPa, x2 = 0.2",19.995 ± 0.049 kg/m3
same,mass density,"374.94 K, 3995.7 kPa, x2 = 0.2",40.155 ± 0.097 kg/m3
same,mass density,"374.94 K, 5995.1 kPa, x2 = 0.2",60.236 ± 0.15 kg/m3
same,mass density,"374.94 K, 7995.3 kPa, x2 = 0.2",80.217 ± 0.19 kg/m3
same,mass density,"374.94 K, 9993 kPa, x2 = 0.2",99.987 ± 0.24 kg/m3
same,mass density,"374.94 K, 11990 kPa, x2 = 0.2",119.489 ± 0.29 kg/m3
same,mass density,"374.94 K, 13988 kPa, x2 = 0.2",138.676 ± 0.34 kg/m3
same,mass density,"374.94 K, 16023 kPa, x2 = 0.2",157.817 ± 0.38 kg/m3
same,mass density,"374.94 K, 17847 kPa, x2 = 0.2",174.574 ± 0.42 kg/m3
same,mass density,"374.94 K, 19903 kPa, x2 = 0.2",192.989 ± 0.47 kg/m3
same,mass density,"374.95 K, 987.06 kPa, x2 = 0.501",11.492 ± 0.028 kg/m3
same,mass density,"374.95 K, 1987.8 kPa, x2 = 0.501",23.329 ± 0.057 kg/m3
same,mass density,"374.95 K, 2995.7 kPa, x2 = 0.501",35.439 ± 0.088 kg/m3
same,mass density,"374.95 K, 3994.8 kPa, x2 = 0.501",47.603 ± 0.12 kg/m3
same,mass density,"374.95 K, 4993.3 kPa, x2 = 0.501",59.918 ± 0.15 kg/m3
same,mass density,"374.95 K, 5994.6 kPa, x2 = 0.501",72.415 ± 0.18 kg/m3
same,mass density,"374.95 K, 6995 kPa, x2 = 0.501",85.031 ± 0.21 kg/m3
same,mass density,"374.95 K, 8053.6 kPa, x2 = 0.501",98.499 ± 0.24 kg/m3
same,mass density,"374.95 K, 8965.3 kPa, x2 = 0.501",110.186 ± 0.27 kg/m3
same,mass density,"374.95 K, 9995.9 kPa, x2 = 0.501",123.471 ± 0.3 kg/m3
same,mass density,"374.95 K, 10995 kPa, x2 = 0.501",136.416 ± 0.33 kg/m3
same,mass density,"374.95 K, 11992 kPa, x2 = 0.501",149.335 ± 0.36 kg/m3
same,mass density,"374.95 K, 12992 kPa, x2 = 0.501",162.294 ± 0.39 kg/m3
same,mass density,"374.95 K, 13995 kPa, x2 = 0.501",175.285 ± 0.42 kg/m3
same,mass density,"374.95 K, 14994 kPa, x2 = 0.501",188.172 ± 0.46 kg/m3
same,mass density,"374.95 K, 15990 kPa, x2 = 0.501",200.942 ± 0.49 kg/m3
same,mass density,"374.95 K, 16990 kPa, x2 = 0.501",213.677 ± 0.52 kg/m3
same,mass density,"374.95 K, 17988 kPa, x2 = 0.501",226.253 ± 0.55 kg/m3
same,mass density,"374.95 K, 19119 kPa, x2 = 0.501",240.354 ± 0.58 kg/m3
same,mass density,"374.95 K, 19941 kPa, x2 = 0.501",250.44 ± 0.61 kg/m3
same,mass density,"400.01 K, 996.68 kPa, x2 = 0.2",9.356 ± 0.023 kg/m3
same,mass density,"400.01 K, 1978.2 kPa, x2 = 0.2",18.57 ± 0.045 kg/m3
same,mass density,"400.01 K, 3994 kPa, x2 = 0.2",37.452 ± 0.091 kg/m3
same,mass density,"400.01 K, 5994.7 kPa, x2 = 0.2",56.097 ± 0.14 kg/m3
same,mass density,"400.01 K, 7993.8 kPa, x2 = 0.2",74.576 ± 0.18 kg/m3
same,mass density,"400.01 K, 9990.6 kPa, x2 = 0.2",92.826 ± 0.23 kg/m3
same,mass density,"400.01 K, 11990 kPa, x2 = 0.2",110.835 ± 0.27 kg/m3
same,mass density,"400.01 K, 13987 kPa, x2 = 0.2",128.512 ± 0.31 kg/m3
same,mass density,"400.01 K, 15981 kPa, x2 = 0.2",145.821 ± 0.35 kg/m3
same,mass density,"400.01 K, 17979 kPa, x2 = 0.2",162.772 ± 0.39 kg/m3
same,mass density,"400.01 K, 19979 kPa, x2 = 0.2",179.326 ± 0.43 kg/m3
same,mass density,"400.02 K, 975.89 kPa, x2 = 0.501",10.626 ± 0.026 kg/m3
same,mass density,"400.02 K, 1987.6 kPa, x2 = 0.501",21.767 ± 0.053 kg/m3
same,mass density,"400.02 K, 2995.6 kPa, x2 = 0.501",32.992 ± 0.083 kg/m3
same,mass density,"400.02 K, 3980.9 kPa, x2 = 0.501",44.058 ± 0.11 kg/m3
same,mass density,"400.02 K, 4993.2 kPa, x2 = 0.501",55.527 ± 0.14 kg/m3
same,mass density,"400.02 K, 5994.2 kPa, x2 = 0.501",66.95 ± 0.16 kg/m3
same,mass density,"400.02 K, 6991.4 kPa, x2 = 0.501",78.405 ± 0.19 kg/m3
same,mass density,"400.02 K, 7992.4 kPa, x2 = 0.501",89.956 ± 0.22 kg/m3
same,mass density,"400.02 K, 8994.6 kPa, x2 = 0.501",101.571 ± 0.25 kg/m3
same,mass density,"400.02 K, 9979.8 kPa, x2 = 0.501",113.018 ± 0.27 kg/m3
same,mass density,"400.02 K, 10987 kPa, x2 = 0.501",124.751 ± 0.3 kg/m3
same,mass density,"400.02 K, 11986 kPa, x2 = 0.501",136.359 ± 0.33 kg/m3
same,mass density,"400.02 K, 12984 kPa, x2 = 0.501",147.944 ± 0.36 kg/m3
same,mass density,"400.02 K, 13986 kPa, x2 = 0.501",159.545 ± 0.39 kg/m3
same,mass density,"400.02 K, 14984 kPa, x2 = 0.501",171.05 ± 0.41 kg/m3
same,mass density,"400.02 K, 15985 kPa, x2 = 0.501",182.526 ± 0.44 kg/m3
same,mass density,"400.02 K, 16984 kPa, x2 = 0.501",193.894 ± 0.47 kg/m3
same,mass density,"400.02 K, 17965 kPa, x2 = 0.501",204.97 ± 0.5 kg/m3
same,mass density,"400.02 K, 18983 kPa, x2 = 0.501",216.347 ± 0.52 kg/m3
same,mass density,"400.02 K, 19960 kPa, x2 = 0.501",227.147 ± 0.55 kg/m3
